Results reported in patent US20240116988A1, “ANTI-ROR1 MACROCYCLIC PEPTIDES AND COMPOSITIONS” (BRISTOL-MYERS SQUIBB COMPANY, priority 2022, published 2024).
Positions of bridges follow the written chain, without caps; N, C: chain ends. Non-standard residues stand in square brackets, D forms with d. Residues, ends and D or L forms follow the SMILES beside them. ξ: configuration not given here. NMeF = CN[C@@H](Cc1ccccc1)C(=O)O; ξY = NC(Cc1ccc(O)cc1)C(=O)O; NMeA = CN[C@@H](C)C(=O)O; AEEA = NCCOCCOCC(=O)O; ξL = CC(C)CC(N)C(=O)O; Sar = CNCC(=O)O

Biological target: T1, human ROR1 (Homo sapiens, UniProt Q01973)
T1 construct: host or cells: HEK 293T cells, Tet-on system induced with doxycycline
Test: ROR1 high content cell-based binding assay
Details: read-out: ROR1 Binding 293T Human HC Cell Based Assay IC50
Outline: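 Doxycycline-induced 293T cells expressing human ROR1, seeded overnight, were treated with compound plus 5-FAM-labeled ROR1-binding probe peptide (30 nM final) for 1 h at 37 °C. After washing and formaldehyde/Hoechst fixation, cell-bound probe fluorescence was read by high-content imaging.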

T1 sequence (Q01973 30-937): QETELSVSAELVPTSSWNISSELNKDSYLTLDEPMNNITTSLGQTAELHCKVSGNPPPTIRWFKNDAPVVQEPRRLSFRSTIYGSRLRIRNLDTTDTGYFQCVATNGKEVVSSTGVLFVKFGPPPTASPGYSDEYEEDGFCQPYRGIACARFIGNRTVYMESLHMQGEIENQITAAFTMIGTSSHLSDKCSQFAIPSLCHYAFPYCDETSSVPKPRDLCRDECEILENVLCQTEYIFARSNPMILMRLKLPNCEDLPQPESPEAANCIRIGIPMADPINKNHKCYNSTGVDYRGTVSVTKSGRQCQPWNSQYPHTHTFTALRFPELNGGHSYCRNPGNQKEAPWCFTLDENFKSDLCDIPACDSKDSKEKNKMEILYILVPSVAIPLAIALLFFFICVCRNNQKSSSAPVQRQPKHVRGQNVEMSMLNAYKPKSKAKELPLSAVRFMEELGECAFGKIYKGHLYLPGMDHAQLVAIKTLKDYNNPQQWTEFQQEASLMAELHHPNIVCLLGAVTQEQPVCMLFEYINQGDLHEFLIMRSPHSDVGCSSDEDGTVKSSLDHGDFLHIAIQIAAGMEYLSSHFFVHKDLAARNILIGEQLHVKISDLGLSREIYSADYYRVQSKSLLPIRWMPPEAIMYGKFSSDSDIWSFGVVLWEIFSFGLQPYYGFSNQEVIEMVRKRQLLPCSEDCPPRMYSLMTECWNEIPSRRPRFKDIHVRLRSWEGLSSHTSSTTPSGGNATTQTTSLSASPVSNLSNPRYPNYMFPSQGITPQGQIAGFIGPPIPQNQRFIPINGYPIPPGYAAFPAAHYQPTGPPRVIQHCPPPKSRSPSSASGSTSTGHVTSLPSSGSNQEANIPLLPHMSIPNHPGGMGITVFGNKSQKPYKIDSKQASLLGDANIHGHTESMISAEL

| Compound | IC50 [µM] |
| --- | --- |
| CC(C)C[C@@H]1NC(=O)[C@H](Cc2ccc(O)cc2)NC(=O)[C@H](Cc2ccccc2)NC(=O)CSC[C@@H](C(=O)NCC(N)=O)NC(=O)[C@H](CC(C)C)NC(=O)[C@H](Cc2ccccc2)N(C)C(=O)[C@H](Cc2ccc(O)cc2)NC(=O)[C@H](Cc2c[nH]c3ccccc23)NC(=O)CNC(=O)[C@H](CO)NC(=O)[C@H](CCCNC(=N)N)NC(=O)[C@H](C(C)C)NC1=O [Example 1023] ({CH2CO}-FYLVRSGWY[NMeF]LCG-NH2; thioether N-12) | 0.079 |
| CC(C)CC1NC(=O)[C@H](Cc2ccc(O)cc2)NC(=O)[C@H](Cc2ccccc2)NC(=O)CSC[C@@H](C(=O)NCC(N)=O)NC(=O)[C@H](Cc2ccccc2)N(C)C(=O)[C@H](Cc2ccc(O)cc2)NC(=O)[C@H](Cc2c[nH]c3ccccc23)NC(=O)C(Cc2ccc(O)cc2)NC(=O)[C@H](C(C)C)NC1=O (some centres unmarked) [Example 1113] ({CH2CO}-FY[ξL]V[ξY]WY[NMeF]CG-NH2; thioether N-9) | 0.1 |
| CC(C)C[C@@H]1NC(=O)[C@H](Cc2ccc(O)cc2)NC(=O)[C@H](Cc2ccccc2)NC(=O)CSC[C@@H](C(=O)NCCOCCOCC(=O)N[C@@H](CCCCN)C(N)=O)NC(=O)[C@H](CC(C)C)NC(=O)[C@H](Cc2ccccc2)N(C)C(=O)[C@H](Cc2ccc(O)cc2)NC(=O)[C@H](Cc2c[nH]c3ccccc23)NC(=O)CNC(=O)[C@H](CO)NC(=O)[C@H](Cc2ccc(O)cc2)NC(=O)[C@H](C(C)C)NC1=O [Example 1089] ({CH2CO}-FYLVYSGWY[NMeF]LC[AEEA]K-NH2; thioether N-12) | 0.077 |
| CC(C)C[C@@H]1NC(=O)[C@H](Cc2ccc(O)cc2)NC(=O)[C@H](Cc2ccccc2)NC(=O)CSC[C@@H](C(=O)NCC(N)=O)NC(=O)[C@H](CC(C)C)NC(=O)[C@H](Cc2ccccc2)N(C)C(=O)[C@H](Cc2ccc(O)cc2)NC(=O)[C@H](Cc2c[nH]c3ccccc23)NC(=O)CNC(=O)[C@H](CO)NC(=O)[C@H](Cc2ccc(O)cc2)NC(=O)[C@H](C)NC1=O [Example 1041] ({CH2CO}-FYLAYSGWY[NMeF]LCG-NH2; thioether N-12) | 0.012 |
| CC[C@H](C)[C@@H]1NC(=O)[C@H](Cc2ccccc2)NC(=O)CSC[C@@H](C(N)=O)NC(=O)[C@H](C)NC(=O)[C@H](Cc2ccc(O)cc2)NC(=O)[C@H](Cc2ccc(O)cc2)NC(=O)[C@H](Cc2c[nH]c3ccccc23)NC(=O)CNC(=O)[C@H](Cc2ccc(O)cc2)NC(=O)[C@H](CCCNC(=N)N)NC(=O)[C@H](C(C)C)NC(=O)[C@H](Cc2c[nH]c3ccccc23)NC1=O [Example 1049] ({CH2CO}-FIWVRYGWYYAC-NH2; thioether N-12) | 0.019 |
| CC(C)[C@@H]1NC(=O)CN(C)C(=O)[C@H](CCCNC(=N)N)NC(=O)[C@H](Cc2ccccc2)NC(=O)CSC[C@@H](C(N)=O)NC(=O)[C@H](C(C)C)NC(=O)[C@H](Cc2c[nH]c3ccccc23)NC(=O)[C@H](Cc2ccc(O)cc2)NC(=O)[C@H](Cc2c[nH]c3ccccc23)NC(=O)CNC(=O)[C@H](Cc2c[nH]c3ccccc23)NC(=O)[C@H](CCCNC(=N)N)NC1=O [Example 1097] ({CH2CO}-FR[Sar]VRWGWYWVC-NH2; thioether N-12) | 0.063 |
| CC(C)C[C@@H]1NC(=O)[C@H](CC(C)C)NC(=O)[C@H](Cc2ccccc2)N(C)C(=O)CNC(=O)[C@H](Cc2ccc(O)cc2)NC(=O)[C@H](Cc2ccccc2)NC(=O)CSC[C@@H](C(N)=O)NC(=O)[C@H](Cc2c[nH]c3ccccc23)NC(=O)[C@H](Cc2ccc(O)cc2)NC1=O [Example 1106] ({CH2CO}-FYG[NMeF]LLYWC-NH2; thioether N-9) | 0.483 |
| CC(C)C[C@@H]1NC(=O)[C@H](Cc2c[nH]cn2)NC(=O)[C@H](Cc2ccccc2)N(C)C(=O)CNC(=O)[C@H](Cc2ccc(O)cc2)NC(=O)[C@@H](Cc2ccccc2)NC(=O)CSC[C@@H](C(N)=O)NC(=O)[C@H](Cc2c[nH]c3ccccc23)NC(=O)[C@H](Cc2ccc(O)cc2)NC1=O [Example 1117] ({CH2CO}-[dF]YG[NMeF]HLYWC-NH2; thioether N-9) | 0.069 |
| CC(C)C[C@@H]1NC(=O)[C@H](Cc2ccccc2)NC(=O)CSC[C@@H](C(=O)NCC(N)=O)NC(=O)[C@H](C)NC(=O)[C@H](Cc2c[nH]c3ccccc23)NC(=O)[C@H](Cc2ccc(O)cc2)NC(=O)[C@H](Cc2c[nH]c3ccccc23)NC(=O)[C@H](Cc2c[nH]c3ccccc23)NC(=O)[C@H](CCC(=O)O)NC(=O)[C@H](Cc2ccc(O)cc2)NC(=O)[C@H](C(C)C)NC(=O)[C@H](Cc2c[nH]c3ccccc23)NC1=O [Example 1013] ({CH2CO}-FLWVYEWWYWACG-NH2; thioether N-12) | 0.637 |
| CC(C)C[C@@H]1NC(=O)[C@H](Cc2ccccc2)N(C)C(=O)[C@H](Cc2ccc(O)cc2)NC(=O)[C@H](Cc2c[nH]c3ccccc23)NC(=O)CNC(=O)[C@H](CO)NC(=O)[C@H](Cc2ccc(O)cc2)NC(=O)[C@H](C(C)C)NC(=O)[C@H](CCCNC(=N)N)NC(=O)[C@H](Cc2ccc(O)cc2)NC(=O)[C@H](Cc2ccccc2)NC(=O)CSC[C@@H](C(=O)NCC(N)=O)NC1=O [Example 1046] ({CH2CO}-FYRVYSGWY[NMeF]LCG-NH2; thioether N-12) | 0.006 |
| CSCC[C@@H]1NC(=O)[C@H](Cc2ccccc2)N(C)C(=O)CNC(=O)[C@H](Cc2ccc(O)cc2)NC(=O)[C@H](Cc2ccccc2)NC(=O)CSC[C@@H](C(N)=O)NC(=O)[C@H](Cc2c[nH]c3ccccc23)NC(=O)[C@H](Cc2ccc(O)cc2)NC(=O)[C@H](CC(C)C)NC1=O [Example 1109] ({CH2CO}-FYG[NMeF]MLYWC-NH2; thioether N-9) | 0.574 |
| CC(C)C[C@@H]1NC(=O)[C@H](Cc2ccccc2)NC(=O)CSC[C@@H](C(=O)NCC(N)=O)NC(=O)[C@H](C(C)C)NC(=O)[C@H](Cc2c[nH]c3ccccc23)NC(=O)[C@H](CC(C)C)NC(=O)[C@H](Cc2c[nH]c3ccccc23)NC(=O)CN(C)C(=O)CNC(=O)[C@H](C(C)C)NC(=O)[C@H](Cc2c[nH]c3ccccc23)NC1=O [Example 1205] ({CH2CO}-FLWVG[Sar]WLWVCG-NH2; thioether N-11) | 0.346 |
| CC(C)C[C@@H]1NC(=O)[C@H](Cc2ccc(O)cc2)NC(=O)[C@H](Cc2ccccc2)NC(=O)CSC[C@@H](C(=O)NCC(N)=O)NC(=O)[C@H](CC(C)C)NC(=O)[C@H](Cc2ccccc2)N(C)C(=O)[C@H](Cc2ccc(O)cc2)NC(=O)[C@H](Cc2c[nH]c3ccccc23)NC(=O)CNC(=O)[C@H](CO)NC(=O)[C@H](CC(N)=O)NC(=O)[C@H](C(C)C)NC1=O [Example 1024] ({CH2CO}-FYLVNSGWY[NMeF]LCG-NH2; thioether N-12) | 0.62 |
| CC(C)C[C@@H]1NC(=O)[C@H](Cc2c[nH]c3ccccc23)NC(=O)[C@H](Cc2ccc(O)cc2)NC(=O)[C@H](Cc2c[nH]c3ccccc23)NC(=O)CNC(=O)[C@H](CC(=O)O)NC(=O)[C@H](Cc2ccc(O)cc2)NC(=O)[C@H](C(C)C)NC(=O)[C@@H]2CCCN2C(=O)[C@H](Cc2ccc(O)cc2)NC(=O)[C@H](Cc2ccccc2)NC(=O)CSC[C@@H](C(N)=O)NC1=O [Example 1094] ({CH2CO}-FYPVYDGWYWLC-NH2; thioether N-12) | 0.014 |
| CC(C)C[C@@H]1NC(=O)[C@H](Cc2ccc(O)cc2)NC(=O)[C@H](Cc2c[nH]c3ccccc23)NC(=O)CSC[C@@H](C(=O)NCC(N)=O)NC(=O)[C@H](CC(C)C)NC(=O)[C@H](Cc2ccccc2)N(C)C(=O)[C@H](Cc2ccc(O)cc2)NC(=O)[C@H](Cc2c[nH]c3ccccc23)NC(=O)CNC(=O)[C@H](CO)NC(=O)[C@H](Cc2ccc(O)cc2)NC(=O)[C@H](C(C)C)NC1=O [Example 1077] ({CH2CO}-WYLVYSGWY[NMeF]LCG-NH2; thioether N-12) | 0.002 |
| CC(C)C[C@@H]1NC(=O)[C@H](Cc2ccc(O)cc2)NC(=O)[C@H](Cc2ccccc2)NC(=O)CSC[C@@H](C(=O)NCC(N)=O)NC(=O)[C@H](CC(C)C)NC(=O)[C@H](Cc2ccccc2)N(C)C(=O)[C@H](Cc2ccc(O)cc2)NC(=O)[C@H](Cc2c[nH]c3ccccc23)NC(=O)CNC(=O)[C@H](CCC(N)=O)NC(=O)[C@H](Cc2ccc(O)cc2)NC(=O)[C@H](C(C)C)NC1=O [Example 1016] ({CH2CO}-FYLVYQGWY[NMeF]LCG-NH2; thioether N-12) | 0.007 |
| CC(C)C[C@@H]1NC(=O)[C@H](Cc2ccccc2)N(C)C(=O)[C@H](Cc2ccc(O)cc2)NC(=O)[C@H](Cc2c[nH]c3ccccc23)NC(=O)CNC(=O)[C@H](CO)NC(=O)[C@H](Cc2ccc(O)cc2)NC(=O)[C@H](C(C)C)NC(=O)[C@@H]2CCCN2C(=O)[C@H](Cc2ccc(O)cc2)NC(=O)[C@H](Cc2ccccc2)NC(=O)CSC[C@@H](C(=O)NCC(N)=O)NC1=O [Example 1066] ({CH2CO}-FYPVYSGWY[NMeF]LCG-NH2; thioether N-12) | 0.005 |
| CC(C)C[C@@H]1NC(=O)[C@H](Cc2c[nH]c3ccccc23)NC(=O)[C@H](Cc2ccc(O)cc2)NC(=O)[C@H](Cc2c[nH]c3ccccc23)NC(=O)CNC(=O)[C@H](CO)NC(=O)[C@H](Cc2ccc(O)cc2)NC(=O)[C@H](C(C)C)NC(=O)[C@@H]2CCCN2C(=O)[C@H](Cc2ccc(O)cc2)NC(=O)[C@H](Cc2ccccc2)NC(=O)CSC[C@@H](C(=O)NCC(N)=O)NC1=O [Example 1001] ({CH2CO}-FYPVYSGWYWLCG-NH2; thioether N-12) | 0.049 |
| CC(C)C[C@@H]1NC(=O)[C@H](Cc2ccc(O)cc2)NC(=O)[C@H](Cc2cnc[nH]2)NC(=O)CSC[C@@H](C(=O)NCC(N)=O)NC(=O)[C@H](CC(C)C)NC(=O)[C@H](Cc2ccccc2)N(C)C(=O)[C@H](Cc2ccc(O)cc2)NC(=O)[C@H](Cc2c[nH]c3ccccc23)NC(=O)CNC(=O)[C@H](CO)NC(=O)[C@H](Cc2ccc(O)cc2)NC(=O)[C@H](C(C)C)NC1=O [Example 1075] ({CH2CO}-HYLVYSGWY[NMeF]LCG-NH2; thioether N-12) | 0.03 |
| CC(C)C[C@@H]1NC(=O)[C@H](Cc2ccc(O)cc2)NC(=O)[C@H](C)N(C)C(=O)CSC[C@@H](C(=O)NCC(N)=O)NC(=O)[C@H](CC(C)C)NC(=O)[C@H](Cc2ccccc2)N(C)C(=O)[C@H](Cc2ccc(O)cc2)NC(=O)[C@H](Cc2c[nH]c3ccccc23)NC(=O)CNC(=O)[C@H](CO)NC(=O)[C@H](Cc2ccc(O)cc2)NC(=O)[C@H](C(C)C)NC1=O [Example 1063] ({CH2CO}-[NMeA]YLVYSGWY[NMeF]LCG-NH2; thioether N-12) | 0.576 |
